Experiment: in vitro
Details: human, hela cells, % viability

SMILES | viability at 28.5 h, 10 µM [%]
O=C(CN1CCN(c2ccc([N+](=O)[O-])cn2)CC1)Nc1ccc2c(c1)OCO2 [CBK074679] | 115
OC(CSc1ccccc1)CN1CCN(C(c2ccccc2)c2ccccc2)CC1 (stereo not drawn) [CBK074683] | 91.3
OC(CSc1ccc(F)cc1)CN1CCN(c2ccc(C(F)(F)F)cn2)CC1 (stereo not drawn) [CBK074688] | 91.2
OC(CNCc1ccc2c(c1)OCO2)COc1ccc(SC(F)(F)F)cc1 (stereo not drawn) [CBK074691] | 120
OC(COc1ccc(F)cc1)CN1CCN(c2nc(-c3ccccc3)ns2)CC1 (stereo not drawn) [CBK074698] | 91.8
O=C(CN1CCN(c2ccc(C(F)(F)F)cn2)CC1)c1ccccc1 [CBK074699] | 111
O=C(CN1CCN(c2ccc(C(F)(F)F)cn2)CC1)c1ccc2c(c1)OCCO2 [CBK074700] | 98.3
O=C(c1cccc(CN2CCN(c3nc(-c4ccccc4)ns3)CC2)c1)N1CCC(O)CC1 [CBK074709] | 110
O=C(CN1CCN(CCCc2c[nH]c3ccc(F)cc23)CC1)N(c1ccccc1)C1CCCCC1 [CBK074710] | 92.1
O=C(CN1CCC(NC(=O)c2ccccc2)CC1)Nc1ccccc1 [CBK074716] | 96.7
O=C(c1c(F)cccc1Cl)N1CCN(Cc2ccc3c(c2)OCO3)CC1 [CBK074724] | 93.9
O=C(c1sccc1Br)N1CCN(Cc2ccc3c(c2)OCO3)CC1 [CBK074730] | 100
CCCc1ccc(S(=O)(=O)N2CCN(Cc3ccc4c(c3)OCO4)CC2)cc1 [CBK074735] | 107
OC(CSc1ccccc1)CN1CCN(Cc2ccc3c(c2)OCO3)CC1 (stereo not drawn) [CBK074761] | 87.2
O=C(CNCc1ccc2c(c1)OCO2)NCc1ccc2c(c1)OCO2 [CBK074763] | 86.8
O=C(CNC1Cc2ccccc2C1)Nc1ccc(Cl)cc1C(=O)c1ccccc1Cl [CBK074764] | 100
COc1cc(OCc2ccccc2)ccc1CN1CCN(Cc2ccccc2)CC1 [CBK074766] | 88.1
N#Cc1cccc(NC(=O)CN2CCN(C(=O)C3COc4ccccc4O3)CC2)c1 (stereo not drawn) [CBK074779] | 93.5
O=S1(=O)CCN(Cc2ccc3c(c2)OCO3)CC1 [CBK074780] | 93.9
O=S1(=O)CCN(CC2COc3ccccc3O2)CC1 (stereo not drawn) [CBK074789] | 88.5
COc1cc2cc(C(=O)N3CCN(Cc4ccc5c(c4)OCO5)CC3)c(=O)oc2cc1OC [CBK074790] | 102

SMILES | viability at 28.5 h, 10 µM [%]
Nc1nc(C2COc3ccccc3O2)ncc1S(=O)(=O)c1ccc(Cl)cc1 (stereo not drawn) [CBK074808] | 96.2
O=S(=O)(CCN1CCN(C(c2ccccc2)c2ccccc2)CC1)c1ccc(Cl)cc1 [CBK074810] | 92
COc1ccc(CCN2CNc3c(c(=O)n(C)c(=O)n3C)C2)cc1OC [CBK074818] | 86
N[C@H](CSCc1ccccc1)C(=O)Nc1ccc([N+](=O)[O-])cc1 [CBK074824] | 88.8
Cc1cc(C(=O)N2CCN(Cc3ccc4c(c3)OCO4)CC2)nn1C [CBK074832] | 111
OC(CN1CCN(Cc2ccc3c(c2)OCO3)CC1)C(F)(F)F (stereo not drawn) [CBK074833] | 108
OC(CNCC1COc2ccccc2O1)C(F)(F)F (stereo not drawn) [CBK074834] | 102
COc1ccccc1N1CCN(CCCCNC(=O)c2ccc(Cl)cc2)CC1 [CBK074835] | 93
CC(C)(C)C(=O)N1CCN(Cc2ccc3c(c2)OCO3)CC1 [CBK074842] | 88.8
OC(COc1ccc2c(c1)OCO2)CN1CCN(C(c2ccccc2)c2ccccc2)CC1 (stereo not drawn) [CBK074854C] | 87.5
OC(COc1ccc(-c2ccccc2)cc1)CN1CCN(Cc2ccccc2)CC1 (stereo not drawn) [CBK074855C] | 94.6
COc1cccc(OCC(O)CN2CCN(Cc3ccccc3)CC2)c1 (stereo not drawn) [CBK074856C] | 108
CCCn1c(O)nnc1-c1cccnc1 [CBK074889] | 86.8
CC(C)CC1OC(NC2CCCCCC2)=NC1=O (stereo not drawn) [CBK074901] | 88.8
Cc1ccccc1NC1=NC(=O)C(CC(C)C)O1 (stereo not drawn) [CBK074902] | 116
CC(C)(C)c1nnc(NCc2ccccc2)s1 [CBK074922] | 95.7
CC(=O)N1CCc2c([nH]c3ccccc23)[C@@]12CCN(Cc1ccc(F)cc1)C2 [CBK074955] | 83
COc1ccc([C@@]23CC[C@@H](NC(=O)Cc4ccc(Cl)cc4)CC2N(C)CC3)cc1OC (stereo partly drawn) [CBK074971T] | 96
COc1ccc([C@@]23CC[C@@H](NC(=O)c4ccc(-c5ccccc5)cc4)CC2N(C)CC3)cc1OC (stereo partly drawn) [CBK074973T] | 89.6
CCCc1[nH]nc(O)c1Cc1ccc(C(F)(F)F)cc1 [CBK075014] | 88.9
COc1ccc(C(NC(=O)C2CCCN(C(=O)NC(=O)c3ccccc3)C2)c2ccccc2C)cn1 (stereo not drawn) [CBK075023] | 90.9

SMILES | viability at 28.5 h, 10 µM [%]
CCCc1[nH]nc(O)c1Cc1cc(F)ccc1Br [CBK075031] | 94.6
CCCc1[nH]nc(O)c1Cc1cccc(C)c1 [CBK075035] | 91.3
CCCc1[nH]nc(O)c1Cc1ccccc1C(F)(F)F [CBK075037] | 92.7
COc1ccc(C(NC(=O)[C@H]2CCCN2C(=O)c2c(-c3ccccc3)noc2C)c2ccccc2C)cn1 (stereo partly drawn) [CBK075055] | 98.4
CC(C)(C)c1nsc(NC2CCCCCC2)n1 [CBK075061] | 96.6
CCOC(=O)c1sc(-c2cccc(C(F)(F)F)c2)nc1O [CBK075064] | 92
CCCc1[nH]nc(O)c1CCc1ccccc1 [CBK075083] | 108
O=C1CCC(=O)N1CCOc1nccnc1OC1CCNCC1 [CBK075084T] | 101
CCOC(=O)c1sc(-c2ccc(Br)cc2)nc1O [CBK075087] | 103
COc1ccc([C@]23CN(C)C[C@H]2CCN(C(=O)Nc2cccc(Cl)c2)C3)cc1OC [CBK075104T] | 112
COc1ccc([C@]23CN(C)C[C@H]2CCN(C(=O)Nc2cccc(Br)c2)C3)cc1OC [CBK075106T] | 105
COc1ccc([C@]23CN(C)C[C@H]2CCN(C(=O)c2ccc4c(c2)OC(F)(F)O4)C3)cc1OC [CBK075110T] | 94.8
COc1ccc(-c2c(O)n[nH]c2CCC2CCCC2)cc1 [CBK075126] | 88.1
COc1ccccc1-c1c(O)n[nH]c1C(C)C [CBK075133] | 111
CCN1C(=O)C2(CC(=O)N(CCCN(C)C(=O)c3ccco3)C2=O)c2cc(C)ccc21 (stereo not drawn) [CBK075141] | 94.3
COC(=O)CN1C(=O)CC2(C1=O)C(=O)N(Cc1ccccc1)c1ccc(F)cc12 (stereo not drawn) [CBK075143] | 95.7
CNC(=O)CN1C(=O)CC2(C1=O)C(=O)N(CCOC)c1ccc(OC)cc12 (stereo not drawn) [CBK075144] | 90.8
COCCN1C(=O)C2(CC(=O)N(CCCCC(C)C)C2=O)c2cc(OC)ccc21 (stereo not drawn) [CBK075145] | 109
C=CCN1C(=O)C2(CC(=O)N(Cc3ccc(OC)c(OC)c3)C2=O)c2ccccc21 (stereo not drawn) [CBK075148] | 114
C=CCN1C(=O)C2(CC(=O)N(CCOc3ccccc3)C2=O)c2ccccc21 (stereo not drawn) [CBK075159] | 101
COCCN1C(=O)C2(CC(=O)N(CC3CCCCC3)C2=O)c2cc(OC)ccc21 (stereo not drawn) [CBK075166] | 90
